Tests used:
[1] = target: Tubulin alpha chain (Sus scrofa) (UniProt P02550); test: Tested for the inhibition using the binding of 5 uM [3H]colchicine to purified tubulin at 37 degree Centigrade
[2] = Tested for the cytotoxicity concentration in CA46 burkitt lymphoma cells; assay type: functional, cell-based; conditions: Homo sapiens
[3] = target: Tubulin alpha chain (Sus scrofa, UniProt P02550); test: Tested for 50 % inhibition of tubulin polymerization by turbidimetric assay
Chain of Tubulin alpha chain (P02550 whole entry, looked up): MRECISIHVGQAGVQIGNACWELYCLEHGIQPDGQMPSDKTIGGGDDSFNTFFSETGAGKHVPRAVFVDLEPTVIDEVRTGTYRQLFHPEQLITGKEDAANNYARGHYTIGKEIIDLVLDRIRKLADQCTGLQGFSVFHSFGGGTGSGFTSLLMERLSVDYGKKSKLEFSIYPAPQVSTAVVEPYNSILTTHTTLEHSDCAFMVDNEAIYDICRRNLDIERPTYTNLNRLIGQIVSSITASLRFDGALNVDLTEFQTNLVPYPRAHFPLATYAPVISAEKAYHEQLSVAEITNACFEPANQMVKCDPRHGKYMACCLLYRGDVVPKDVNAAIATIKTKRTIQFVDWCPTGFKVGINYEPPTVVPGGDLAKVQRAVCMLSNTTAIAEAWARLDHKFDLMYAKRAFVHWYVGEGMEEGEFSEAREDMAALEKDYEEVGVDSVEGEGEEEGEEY

Chain of Tubulin alpha chain (Sus scrofa) (P02550 whole entry, looked up): as above

SMILES	inhibition [1] [%]	IC50 [2] [nM]	IC50 [3] [nM]
COc1cc([C@@H]2c3cc4c(cc3[C@H](O)[C@H]3COC(=O)[C@H]23)OCO4)cc(OC)c1OC	84		
COc1ccc(-c2oc3cc(O)c(OC)c(O)c3c(=O)c2OC)cc1O [CENTAUREIDIN]		200	3000

Reference: ChEMBL document CHEMBL1127208, “Centaureidin, a cytotoxic flavone from Polymnia fruticosa, inhibits tubulin polymerization” (Bioorg Med Chem Lett, 1993)
